# Entries after “also recorded” stand apart in the source; their conditions may differ.
# Experiments:
# [1] = system: angiogenesis; settings: cited from earlier work
# [2] = system: cancer; settings: cited from earlier work
# [3] = system: F9 teratocarcinoma cells; settings: cited from earlier work
# [4] = system: allergy and dermatopathies; settings: cited from earlier work
# [5] = system: formation of peroxidized lipids; settings: cited from earlier work
# [6] = system: blood vessel and capillary; settings: cited from earlier work
# [7] = system: cancer cells; settings: cited from earlier work
# [8] = system: LamB1 gene; format: cell-based, mouse; settings: F9 cells, 7 days; FIG. 8
# [9] = DPPH free radical decolorization (anti-oxidative activity); format: biochemical; settings: 0.04% ethanol solution, 30 min, room temperature, 517 nm
# Experimental: DPPH(1,1-diphenyl-2-picrylhydrazyl) is a free radical which is very stable in an organic solution. […] Accordingly, it is advantageously employed in measuring anti-oxidative activity of a material.
# DPPH was dissolved in absolute ethanol to a concentration of […]("DPPH ethanol solution"). To this solution, the extract of R. verniciflua obtained in Example 1 and Sesamol (Sigma, U.S.A.), a natural anti-oxidant were added to a concentration of 0.04%, respectively to obtain an "extract ethanol solution" and a "Sesamol ethanol solution".
# 2 ml of the DPPH ethanol solution was put into each of two 4 me disposable spectrophotometer cuvettes(Muller ratiolab, Germany). Then, 2 ml of the extract ethanol solution was placed in one cuvette and 2 ml of the Sesamol ethanol solution was put into the other cuvette. The mixtures were reacted at room temperature for 30 min. As a control, a cuvette containing 4 ml of the DPPH ethanol solution was used. The absorption of each cuvette was determined at 517 nm with a spectrophotometer(HP 8453 diode array spectrophotometer). The absorption of the extract ethanol solution was calibrated with the absorption of the control, and the capability of the extract ethanol solution to decolorize the purple color of the DPPH ethanol solution was calculated based on the calibrated absorption of the Sesamol ethanol solution.
smiles,measurement,setting,value
CC1CCC2(C(=O)O)CCC3(C)C(=CCC4C5(C)CCC(O)C(C)(C)C5CCC43C)C2C1C (stereo not shown) [urusolic acid],inhibitory activity on angiogenesis (in words),[1],some inhibitory activity on angiogenesis
same,anti-cancer activity (in words),[2],have anti-cancer activity
same,differentiation of F9 teratocarcinoma cells (in words),[3],capable of differentiating F9 teratocarcinoma cells into normal cells; also recorded: induce the differentiation of F9 teratocarcinoma cells by regulating the gene involved in the differentiation
CC1(C)CC[C@]2(C(=O)O)CC[C@]3(C)C(=CC[C@@H]4[C@@]5(C)CC[C@H](O)C(C)(C)[C@@H]5CC[C@]43C)[C@@H]2C1 [oleanolic acid],inhibitory activity on angiogenesis (in words),[1],some inhibitory activity on angiogenesis
same,anti-cancer activity (in words),[2],have anti-cancer activity
same,differentiation of F9 teratocarcinoma cells (in words),[3],capable of differentiating F9 teratocarcinoma cells into normal cells; also recorded: induce the differentiation of F9 teratocarcinoma cells by regulating the gene involved in the differentiation
"O=c1c(O)c(-c2ccc(O)c(O)c2)oc2cc(O)ccc12 (single isomer, unassigned) [Fisetin, 3,3',4',7-tetrahydroxyflavone]",inhibiting allergy and dermatopathies,[4],inhibiting allergy and dermatopathies
same,suppressing the formation of peroxidized lipids,[5],suppressing the formation of peroxidized lipids
same,protecting blood vessel and capillary,[6],protecting blood vessel and capillary
CC1=C(/C=C/C(C)=C/C=C/C(C)=C/C(=O)O)C(C)(C)CCC1 [retinoic acid],inhibitory activity on angiogenesis (in words),[1],inhibit angiogenesis
same,differentiation of F9 teratocarcinoma cells (in words),[3],transforms into a primitive developmental form
same,differentiation of cancer cells (in words),[7],induce the differentiation of cancer cells to normal cells
same,expression of LamB1 gene (northern blotting),[8],converts the gene of the cancer cell to express LamBl gene
Oc1ccc2c(c1)OCO2 [Sesamol],anti-oxidative activity relative to Sesamol's 100,[9],100
"O=C1c2ccc(O)cc2OC(c2ccc(O)c(O)c2)C1O (single isomer, unassigned) [fustin, 3,3',4',7-tetrahydroxyflavanone]",inhibiting allergy and dermatopathies,[4],inhibiting allergy and dermatopathies
same,suppressing the formation of peroxidized lipids,[5],suppressing the formation of peroxidized lipids
same,protecting blood vessel and capillary,[6],protecting blood vessel and capillary
C=C1CCC(O)CC1=CC=C1CCCC2(C)C1CCC2C(C)CCCC(C)C (stereo not shown) [vitamin D3],inhibitory activity on angiogenesis (in words),[1],inhibit angiogenesis
same,differentiation of cancer cells (in words),[7],induce the differentiation of cancer cells to normal cells
